EC50 and Ki data for twelve compounds are collected here from US11964978B2, “Modulators of STING (stimulator of interferon genes)” (PFIZER INC., priority 2021, dated 2024).

For assay [1], the system named is THP-1 Lucia ISG cells (IRF-inducible Lucia luciferase reporter). Put plainly: Interferon-β induction: THP-1 ISG reporter cell line. The following applies: THP1-Lucia ISG, 24 hours incubation, read-out: THP-1 Lucia ISG Cells IFN-β EC50. In kind it is cell-based. The procedure:
Interferon-β Induction: THP-1 ISG Reporter Cell Line
THP-1 Lucia™ ISG cells (InvivoGen) express the secreted luciferase “Lucia” reporter gene under the control of an IRF-inducible composite promotor comprised of five interferon response elements. THP-1 Lucia™ ISG cells were grown in RPMI media plus 2 mM L-glutamine, 10% fetal bovine serum, and 0.5% Pen-Strep. Hygromycin B and Zeocin were present to maintain stable transfection. 10^4 cells were seeded in 96-well plates and incubated overnight 37° C., 5% CO2. 50 μL of serial diluted compounds in media (final 0.5% DMSO) was and incubated for an additional 24 hours. After incubation, the plates were centrifuged at 2000 rpm for 10 min. 50 μl of cell culture supernatant of each well was transferred to a white, opaque 96-well plate. One pouch of QUANTI-Luc™ (InvivoGen) powder was prepared in 25 mL of endotoxin-free water and 100 μL of prepared warm QUANTI-Luc solution were added to each well containing the supernatant. The luminescence signal was measured using a Perkin-Elmer Envision microplate reader. Data were normalized to “% effect” with a positive control STING agonist that was known to maximize the luciferase signal and the negative control DMSO.

Assay [2] concerns phosphorylation of IRF3 in THP-1 cells (STING activation). Briefly: Phosphorylation of IRF3: THP-1 cell ELISA. Type of assay: cell-based. The following applies: Homo sapiens, 3 hours incubation, read-out: THP-1 CELL P-IRF3 EC50. The procedure: Phosphorylation of IRF3: THP-1 cell ELISA
STING activation results in recruitment of TBK1 and phosphorylation of IRF3 transcription factor before induction of type I interferons. THP-1 cells (InvivoGen) were grown in RPMI media plus 2 mM L-glutamine, 10% fetal bovine serum, and 0.5% Pen-Strep. 10^4 cells were seeded in 96-well plates and incubated overnight […]. Compounds serial diluted compounds in media (final 0.5% DMSO) were added to the cells and incubated for an additional 3 hours. After incubation, the plates were centrifuged at 2000 rpm for 5 min. The cells were then lysed in 100 μl RIPA buffer and vortexed for 30 minutes at room temperature. 25 μl of lysate was then transferred to clear polystyrene High Bind plates that had been previously coated with mouse anti-human IRF-3 capture antibody (BD Pharmigen), and allowed to incubate at 4° C. for 16 hours. The plates were then washed and incubated with rabbit anti-phospho-IRF3 detection antibody (Cell Signaling Technologies) for 1.5 hours at room temperature. Finally, an HRP-linked secondary antibody (Cell Signaling Technologies) was added for 30 min before the Glo Substrate Reagent (R&D Systems) was used generate the luminescent signal. The signal was measured using a Perkin-Elmer Envision microplate reader. Data were normalized to “% effect” with a positive control STING agonist that was known to maximize the phosphorylated IRF3 signal and the negative control was DMSO.
In general terms: In an ELISA, binding on a coated surface is turned into a signal by an enzyme label.

Another assay concerns the target R232-STING (Homo sapiens (Human), UniProt Q86WV6, H232R). The following applies: read-out: R232-STING SPA-IC50 Ki; STING residues 155-341, 100 nM 3H-cGAMP; KI from IC50 with Cheng-Prusoff equation.

Some results are limits rather than exact numbers.

Sequence of R232-STING (Q86WV6 155-341 H232R): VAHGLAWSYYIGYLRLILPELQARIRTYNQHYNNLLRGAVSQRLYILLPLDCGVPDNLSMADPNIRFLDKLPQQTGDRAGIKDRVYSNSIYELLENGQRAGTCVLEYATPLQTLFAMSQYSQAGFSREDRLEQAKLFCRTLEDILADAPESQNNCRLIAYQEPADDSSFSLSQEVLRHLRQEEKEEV

Turning to `Cc1cc(-c2cn(C)c(-c3nc(C(N)=O)cc4c3cnn4C)n2)n(C[C@@H]2CCO2)n1` (single isomer, unassigned) [AIM02], the figures for the EC50 in assay [1] and in assay [2] were 8960 nM and > 10000 nM, respectively. Also, the Ki at R232-STING is 135 nM.

For `Cc1cc(-c2cn(C)c(-c3nc(C(N)=O)cc4c3cnn4C)n2)n(C[C@H]2CCO2)n1` (single isomer, unassigned) [Example AIM01], the EC50 in assay [1] and in assay [2] was > 10000 nM each time. Besides, the Ki on R232-STING came to 175 nM.

`CCn1cc(-c2cc(C)nn2CC)nc1-c1nc(C(N)=O)cc2c1cnn2C` [AIA02, 4-[1-ethyl-4-(1-ethyl-3-methyl-1H-pyrazol-5-yl)-1H-imidazol-2-yl]-1-methyl-1H-pyrazolo[4,3-c]pyridine-6-carboxamide]: the values for the EC50 in assay [1] and in assay [2] were 770 nM and 800 nM, respectively. The Ki at R232-STING was determined as 18 nM.

Consider `CCn1nc(C)cc1-c1cn(C(C)C)c(-c2nc(C(N)=O)cc3c2cnn3C)n1` [AIA03, 4-[4-(1-ethyl-3-methyl-1H-pyrazol-5-yl)-1-(propan-2-yl)-1H-imidazol-2-yl]-1-methyl-1H-pyrazolo[4,3-c]pyridine-6-carboxamide], for which the EC50 was 4530 nM in assay [1] and 4890 nM in assay [2]. Besides, the Ki at R232-STING was found to be 71.4 nM.

Consider `CCn1nc(C)cc1-c1cn(CC(F)F)c(-c2nc(C(N)=O)cc3c2cnn3C)n1` [AIA04, 4-[1-(2,2-difluoroethyl)-4-(1-ethyl-3-methyl-1H-pyrazol-5-yl)-1H-imidazol-2-yl]-1-methyl-1H-pyrazolo[4,3-c]pyridine-6-carboxamide], for which the figures for the EC50 in assay [1] and in assay [2] were 1310 nM and 1260 nM, respectively. For the same compound, the Ki on R232-STING is 33.8 nM.

In the case of `CCn1nc(C)cc1-c1cn(C)c(-c2nc(C(N)=O)cc3c2ccn3C)n1` [AIC02, 4-[4-(1-ethyl-3-methyl-1H-pyrazol-5-yl)-1-methyl-1H-imidazol-2-yl]-1-methyl-1H-pyrrolo[3,2-c]pyridine-6-carboxamide], the EC50 in assay [1] and in assay [2] was > 10000 nM each time. Further, the Ki at R232-STING is 113 nM.

In the case of `Cc1cc(-c2cn(C)c(-c3nc(C(N)=O)cc4c3cnn4C)n2)n(CCC(F)(F)F)n1` [AIF05, 1-methyl-4-{1-methyl-4-[3-methyl-1-(3,3,3-trifluoropropyl)-1H-pyrazol-5-yl]-1H-imidazol-2-yl}-1H-pyrazolo[4,3-c]pyridine-6-carboxamide], at R232-STING, the Ki is > 990 nM.

For `CCn1nc(C)c(Cl)c1-c1cn(C)c(-c2nc(C(N)=O)cc3c2cnn3C)n1` [AIF08, 4-[4-(4-chloro-1-ethyl-3-methyl-1H-pyrazol-5-yl)-1-methyl-1H-imidazol-2-yl]-1-methyl-1H-pyrazolo[4,3-c]pyridine-6-carboxamide], the Ki on R232-STING was > 990 nM.

On to `CCn1nc(C(F)(F)F)cc1-c1cn(C)c(-c2nc(C(N)=O)cc3c2cnn3C)n1` [AIF09, 4-{4-[1-ethyl-3-(trifluoromethyl)-1H-pyrazol-5-yl]-1-methyl-1H-imidazol-2-yl}-1-methyl-1H-pyrazolo[4,3-c]pyridine-6-carboxamide], for which the Ki on R232-STING is > 990 nM.

For the compound `CCc1nn(C)cc1-c1cn(C)c(-c2nc(C(N)=O)cc3c2cnn3C)n1` [AIH01, 4-[4-(3-ethyl-1-methyl-1H-pyrazol-4-yl)-1-methyl-1H-imidazol-2-yl]-1-methyl-1H-pyrazolo[4,3-c]pyridine-6-carboxamide], at R232-STING, the Ki was 352 nM.

Regarding `CCn1nc(C)cc1-c1cn(Cc2ccccc2)c(-c2nc(C(N)=O)cc3c2cnn3C)n1` [AIP03], the Ki on R232-STING is > 990 nM.

Take `CCn1nc(C)cc1-c1cn(C2CC2)c(-c2nc(C(N)=O)cc3c2cnn3C)n1` [Example AIB01, 4-[1-cyclopropyl-4-(1-ethyl-3-methyl-1H-pyrazol-5-yl)-1H-imidazol-2-yl]-1-methyl-1H-pyrazolo[4,3-c]pyridine-6-carboxamide]: the Ki at R232-STING turned out to be 257 nM.

Usually EC50 stands for the concentration giving half of the maximal effect. For orientation: Ki means the dissociation constant of the complex between target and ligand, obtained from inhibition or displacement.
